Laboratory results from ChEMBL document CHEMBL1799946, “Synthesis and biological evaluation of desmethylveramiline, a micromolar Hedgehog inhibitor” (Bioorg Med Chem Lett, 2011).

Tests used:
Sonic hedgehog protein = Sonic hedgehog protein (Mus musculus, UniProt Q62226); experiment: Inhibition of SHH pathway in mouse Shh Light2 cells after 40 hrs by Gli-dependent luciferase reporter gene assay; type: functional, cell-based, Shh Light II
[1] = biological target: Sonic hedgehog protein (Mus musculus) (UniProt Q62226); experiment: Inhibition of N-terminal SHH activated pathway in mouse C3H10T1/2 cells assessed as SAG-induced cell differentiation at 1 uM by alkaline phosphatase assay; type: cell-based; details: C3H 10T1/2
[2] = biological target: Sonic hedgehog protein (Mus musculus) (UniProt Q62226); experiment: Inhibition of N-terminal SHH activated pathway in mouse C3H10T1/2 cells assessed as SAG-induced cell differentiation at 10 uM by alkaline phosphatase assay; type: cell-based; details: C3H 10T1/2
[3] = biological target: Sonic hedgehog protein (Mus musculus) (UniProt Q62226); experiment: Inhibition of SHH pathway in mouse Shh Light2 cells at 0.3 uM after 40 hrs by Gli-dependent luciferase reporter gene assay; type: functional, cell-based; details: Shh Light II
[4] = biological target: Sonic hedgehog protein (Mus musculus) (UniProt Q62226); experiment: Inhibition of SHH pathway in mouse Shh Light2 cells at 3 uM after 40 hrs by Gli-dependent luciferase reporter gene assay; type: functional, cell-based; details: Shh Light II
[5] = biological target: Sonic hedgehog protein (Mus musculus) (UniProt Q62226); experiment: Inhibition of SHH pathway in mouse Shh Light2 cells at 10 uM after 40 hrs by Gli-dependent luciferase reporter gene assay; type: functional, cell-based; details: Shh Light II

Chain of Sonic hedgehog protein (Q62226 25-198 limits assumed): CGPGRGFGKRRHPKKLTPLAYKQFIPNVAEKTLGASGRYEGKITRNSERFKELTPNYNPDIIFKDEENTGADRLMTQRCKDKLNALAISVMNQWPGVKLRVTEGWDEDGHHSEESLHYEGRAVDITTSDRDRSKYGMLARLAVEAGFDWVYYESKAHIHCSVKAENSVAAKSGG

SMILES	IC50 (Sonic hedgehog protein)	inhibition [1]	inhibition [2]	inhibition [3]	inhibition [4]	inhibition [5]
COc1cccc(CN(C(=O)CC(C)(C)C)[C@H]2C[C@@H](C(=O)N3CCNCC3)N(Cc3ccc4c(c3)OCO4)C2)c1	0.1 µM	78%	99%	89%	97%	92%
CC1=C2C[C@H]3[C@@H](CC=C4C[C@@H](O)CC[C@@]43C)[C@@H]2CC[C@]12O[C@@H]1C[C@H](C)CN[C@H]1[C@H]2C [CYCLOPAMINE]	0.3 µM	71%	105%	58%	96%	98%
C[C@H]([C@@H]1CCCCN1)[C@H]1CC[C@H]2[C@@H]3CC=C4C[C@@H](O)CC[C@]4(C)[C@H]3CC[C@]12C [DESMETHYLVERAMILINE]	1.1 µM	13%	85%	5%	47%	87%
